# Results from paper PMC6198068, “Discovery of a Novel Nav1.7 Inhibitor From Cyriopagopus albostriatus Venom With Potent Analgesic Efficacy” (Frontiers in Pharmacology, 2018).
# How the values were obtained:
# [1] = system: formalin-induced paw licking in mice; assay: Formalin-induced paw licking; format: in vivo, ICR mice; conditions: mouse, in vivo, ip
# Experimental: (§1) The ICR mice (18–22 g) used in this study were purchased from the Experimental Animal Center of SLac-kinda (Changsha, China). The animals were maintained at 20–25°C and freely allowed to standard rodent chow and water ad libitum. Ethical approval for in vivo experiments in animals was approved by the Animal Care and Use Committee (ACUC) at the Hunan Province Animal Management Office (HPAMO).
# A formalin test was performed according to the previous method ([Owoyele et al., 2005]). […] The time spent licking the injected paw by each mouse was recorded by a digital stopwatch during Phase I (0–15 min post-injection) and Phase II (15–40 min post-injection).
# hot plate test in mice = assay: Hot plate test; format: in vivo, ICR mice; conditions: mouse, in vivo
# Experimental: as §1
# According to a previous method ([Meng et al., 2017]), a hot plate apparatus (model YLS-21A, Jinan, China) maintained at 55 ± 1°C, was used to measure the pain threshold of mice subjected to a thermal stimulus. Each female mouse was placed on hot plate to observe its pain response (hind-paw-licking or jumping) acted as its own control. The mice whose latent response times were shorter than 5 s or longer than 30 s were excluded from the test.
# Nav1.4 = system: Nav1.4; set-up: method as in Xiao et al., 2008; Goncalves et al., 2018; conditions: skeletal isoform; ref Xiao et al., 2008; Goncalves et al., 2018; cited from earlier work
Compound,analgesic effect on Phase I compared to control [1],"paw licking time, Phase I [1]","paw licking time, Phase II [1]","latency time, hot plate (hot plate test in mice)",IC50 (Nav1.4)
"CN1CC[C@]23c4c5ccc(O)c4O[C@H]2[C@@H](O)C=C[C@H]3[C@H]1C5 [morphine, reference compound]",modest analgesia,64.1 ± 8.5 s,126.1 ± 19.8 s,15.2 ± 1.9 s,–
"HWTX-IV: spider peptide toxin; printed as μ-TRTX-Hhn1b (HWTX-IV) in b50, μ-TRTX-Hs2a (HWTX-IV) in b51",–,–,–,–,400 nM
